According to US6337306B1, “Phenoxyacetic acid derivatives and their use as herbicides” (Rhone-Poulenc Agro, priority 1997, dated 2002):

Legend:
[1] = test system: Soya, Maize, Rice, Wheat; assay: Test Method 2: crop damage / selectivity, glass house pot test; assay type: in vivo, crop species; details: at levels of applications toxic to the weeds
Method: TEST METHOD 2 a) General Appropriate quantities of the compounds used to treat the plants were dissolved in acetone to give solutions equivalent to application rates of up to 250 g test compound per hectare (g/ha). These solutions were applied from an automatic laboratory herbicide sprayer delivering the equivalent of 720 liters of spray fluid per hectare. b) Weed control: Pre-emergence The seeds were sown in 70 mm square, 75 mm deep plastic pots in non-sterile soil, 3 species per pot. The quantities of seed per pot were as follows: [table] The compounds of the invention were applied to the soil surface, containing the seeds, as described in (a). Pots containing the species represented were allocated to each treatment, with unsprayed controls and controls sprayed with acetone alone. After treatment the pots were placed on capillary matting kept in a glass house, and watered overhead. Visual assessment of crop damage was made 17 days after spraying. The results were expressed as the percentage reduction in growth or damage to the crop or weeds, in comparison with the plants in the control pots.

[2] = test system: Lindemia procunbens; assay: Test Method 1: soil application in paddy fields, herbicidal efficacy; assay type: in vivo; details: 1 kg ai/ha, wettable powder applied to paddy water, assessed 28 days after application; also: ranges in brackets are in %
Method: (§1) Test Method 1 (Soil Application in Paddy Fields) A suitable amount of water and chemical fertiliser were added to paddy field soil. A plastic pot (1/5000 a; 200 cm2) was filled with a portion of this soil followed by kneading to convert it to a state of a paddy field. A stock of paddy field rice plant (variety: Koshihikari) comprising a pair of two seedlings, which had been grown in advance in a greenhouse to the stage of two leaves, was transplanted into each pot. Furthermore, in each pot, there were sown predetermined amounts of seeds of Echinochloa orizicola, Monochoria vaginalis var. plantaginea, Lindernia procumbens and Scirpus jundoides var. hotarui, respectively, and water was added to a depth of 3 cm. On the next day a wettable powder formula was prepared by the method described in the Formulation Example 2, and diluted with a suitable amount of water to give a concentration of active ingredient of 1 kg per ha. The diluted formula was applied by dropping with a pipette. After 28 days from the application with the chemicals, herbicidal effects on each weeds and phytotoxicity on paddy field rice plants were assessed according to the following criteria of Table 3. [table]

[3] = test system: Monochoria vaginalis; assay: as above; assay type: in vivo; details: 1 kg ai/ha, wettable powder applied to paddy water, assessed 28 days after application; also: ranges in brackets are in %
Method: as §1

[4] = test system: Scirpus juncoides; assay: as above; assay type: in vivo; details: 1 kg ai/ha, wettable powder applied to paddy water, assessed 28 days after application; also: ranges in brackets are in %
Method: as §1

[5] = test system: Echinochloa oryzicola; assay: as above; assay type: in vivo; details: 1 kg ai/ha, wettable powder applied to paddy water, assessed 28 days after application; also: ranges in brackets are in %
Method: as §1

[6] = test system: Oryza sativa; assay: Test Method 1: soil application in paddy fields, phytotoxicity on transplanted paddy field rice plants; assay type: in vivo, Oryza sativa (variety: Koshihikari); details: 1 kg ai/ha, transplanted rice at two-leaf stage, assessed 28 days after application; also: ranges in brackets are in %
Method: as §1

SMILES	crop selectivity [1]	Herbicidal efficacy (Point) LIDPY [2]	Herbicidal efficacy (Point) MOOVA [3]	Herbicidal efficacy (Point) SCPJU [4]	Herbicidal efficacy (Point) ECHOR [5]	Phytotoxicity ORYSA [6]	Herbicidal efficacy (Point) LIDPY ([2]; listed as 5.146 E isomer)	Herbicidal efficacy (Point) ECHOR ([5]; listed as 5.146 E isomer)	Phytotoxicity ORYSA ([6]; listed as 5.146 E isomer)	Herbicidal efficacy (Point) LIDPY ([2]; listed as 5.146 Z isomer)	Herbicidal efficacy (Point) ECHOR ([5]; listed as 5.146 Z isomer)	Phytotoxicity ORYSA ([6]; listed as 5.146 Z isomer)
COC=C(Oc1ccc(Cl)cc1CBr)C(=O)OC [Compound 1.73]	selective in at least one crop species	7 (60-70)	10 (90-100)	9 (80-90)	10 (90-100)	2 (10-20)						
COC=C(Oc1ccc(Cl)cc1CO)C(=O)OC [Compound 1.313, Methyl 2-(2-Hydroxymethyl-4-chlorophenoxy)-3-methoxyacrylate]	selective in at least one crop species	10 (90-100)	10 (90-100)	10 (90-100)	10 (90-100)	3 (20-30)						
COC=C(Oc1ccccc1COc1ccccc1C)C(=O)OC [Compound 2.6, Methyl 2-[2-(2-Methylphenoxy)methylphenoxy]-3-methoxyacrylate]		8 (70-80)	10 (90-100)	7 (60-70)	10 (90-100)	3 (20-30)						
COC=C(Oc1ccc(Cl)cc1COc1ccccc1C)C(=O)OC [Compound 2.129]	selective in at least one crop species	9 (80-90)	10 (90-100)	8 (70-80)	10 (90-100)	2 (10-20)						
COC=C(Oc1ccc(Cl)cc1COc1ccccc1C)C(=O)O [Compound 2.135, 2-[4-Chloro-2-(2-methylphenoxymethyl)]phenoxy-3-methoxyacrylic Acid]		0 (0)	9 (80-90)	4 (30-40)	4 (30-40)	0 (0)						
COC=C(Oc1ccc(Cl)cc1COC(C)=O)C(=O)OC [Compound 2.619, Methyl 2-(2-Acetyloxymethyl-4-chlorophenoxy)-3-methoxyacrylate]	selective in at least one crop species	10 (90-100)	10 (90-100)	9 (80-90)	10 (90-100)	3 (20-30)						
COC=C(Oc1ccc(Cl)cc1CON=C(C)C)C(=O)OC [Compound 4.61]		10 (90-100)	9 (80-90)	9 (80-90)	10 (90-100)	1 (0-10)						
COC=C(Oc1ccccc1CON=C(C)c1ccc(Cl)cc1)C(=O)OC [Compound 4.68]		8 (70-80)	10 (90-100)	6 (50-60)	10 (90-100)	3 (20-30)						
COC=C(Oc1ccc(Cl)cc1CON=C(C)c1ccc(Cl)cc1)C(=O)OC [Compound 4.71]	selective in at least one crop species	9 (80-90)	10 (90-100)	9 (80-90)	10 (90-100)	3 (20-30)						
COC=C(Oc1ccccc1CON=C(C)OCc1ccccc1)C(=O)OC [Compound 4.99]		8 (70-80)	10 (90-100)	5 (40-50)	9 (80-90)	3 (20-30)						
COC=C(Oc1ccc(Cl)cc1CON=C(C)OCc1ccccc1)C(=O)OC [Compound 4.107]	selective in at least one crop species	5 (40-50)	10 (90-100)	9 (80-90)	10 (90-100)	1 (0-10)						
CCC(=NOCc1ccccc1)OCc1ccccc1OC(=COC)C(=O)OC [Compound 5.146 E isomer, Methyl 2-{2-[(1-Benzyloxyiminopropyl)oxymethyl]phenoxy}-3-methoxyacrylate]							8 (70-80)	9 (80-90)	2 (10-20)			
CCC(=NOCc1ccccc1)OCc1ccccc1OC(=COC)C(=O)OC [Compound 5.146 Z isomer, Methyl 2-{2-[(1-Benzyloxyiminopropyl)oxymethyl]phenoxy}-3-methoxyacrylate]			10 (90-100)	3 (20-30)						9 (80-90)	10 (90-100)	3 (20-30)
CCC(=NOCc1ccccc1)OCc1cc(Cl)ccc1OC(=COC)C(=O)OC [Compound 5.541 E isomer]	selective in at least one crop species	10 (90-100)	10 (90-100)	9 (80-90)	10 (90-100)	1 (0-10)						
